# Experimental data taken from US10577381B2, “Prodrugs of 2,4-pyrimidinediamine compounds and their uses” (Rigel Pharmaceuticals, Inc., priority 2005, dated 2020).
# “Also recorded” adds a separate entry of the source. Like-named read-outs stand apart in the source and are kept apart here.
# How the values were obtained:
# [1] = system: IC-mediated vascular edema (Arthus reaction); experiment: Reverse Passive Arthus (RPA) reaction; type: in vivo, rat
# Source text: IC-mediated acute inflammatory tissue injury is implicated in a variety of human autoimmune diseases, including vasculitis, serum sickness, systemic lupus erythematosus, RA, and glomerulonephritis. The classical experimental model for IC-mediated tissue injury is the Reverse Passive Arthus (RPA) reaction. Intravenous injection of antigen (ovalbumin, OVA) following intradermal injection of antibodies specific to OVA (rabbit anti-OVA IgG) results in perivascular deposition of IC and a rapid inflammatory response characterized by edema, neutrophil infiltration, and hemorrhage at the injection sites (Szalai, et al., 2000, J. Immunol. 164(1):463-468).
# [2] = Safety pharmacology: cardiovascular study; type: in vivo; conditions: 50 mg/kg
# Description: (§1) GLP toxicology studies included negative mutagenicity and clastogenicity studies (Ames, chromosomal aberration, and mouse micronucleus). […] The No Observed Adverse Effect Level (NOAEL) is 10-30 mg/kg/day for rats and 100 mg/kg/day for monkeys.
# [3] = system: collagen antibody-induced arthritis; experiment: Collagen antibody-induced arthritis (CAIA); type: in vivo, Balb/c mice
# Source text: This passive model differs from the traditional rodent collagen-induced arthritis (CIA) in that disease symptoms appear quickly (developing within 24-48 hrs after an IV-injection of antibodies), arthritis is inducible in both CIA-susceptible and CIA-resistant mouse strains, and it allows evaluation of inflammation that is independent of antibody production. CAIA was induced in Balb/c mice by intravenous injection of Arthrogen-CIA® Monoclonal Antibody Blend (Chemicon International, Inc., Temecula, Calif.) via the tail vein, followed 2 days later by an intraperitoneal injection of LPS. […] The severity of the arthritis in hind-paws was scored daily (scale of 0-4 per paw, sum of scores for both hind paws).
# [4] = Water solubility in aqueous buffer; type: physicochemical
# LTC4 = experiment: FcεRI-dependent production and release of LTC4; type: cell-based; conditions: Homo sapiens
# [5] = rat, in vivo
# [6] = system: Cord-Blood Derived Primary Human Mast Cells (CHMC); experiment: FcεRI-dependent activation of CHMC, tryptase released upon degranulation; type: cell-based; conditions: Mast cell, activity of tryptase released upon degranulation
# cytokines = experiment: FcεRI-dependent production and release of cytokines; type: cell-based; conditions: Homo sapiens; range over cytokines; read-out: EC50, FcεRI-dependent production and release of all cytokines tested
# [7] = GLP mutagenicity and clastogenicity studies (Ames, chromosomal aberration, mouse micronucleus)
# Description: as §1
# [8] = monkey, in vivo
# Description: as §1
# [9] = Safety pharmacology: CNS (Irwin) study; type: in vivo; conditions: 50 mg/kg
# Description: as §1
# [10] = system: collagen-induced arthritis; experiment: Collagen-induced arthritis (CIA); type: in vivo, Syngeneic LOU rats
# Source text: One of the experimental models for IC-mediated tissue injury is the CIA in rodents (Kleinau et al., 2000, J. Exp. Med. 191:1611-1616). Injection of type II collagen (CII) into rodents produces an immune reaction that characteristically involves inflammatory destruction of cartilage and bone of the distal joints with concomitant swelling of surrounding tissues. CIA in rats is commonly used to evaluate compounds that might be of potential use as drugs for treatment of rheumatoid arthritis and other chronic inflammatory conditions and is induced in susceptible strains of either mice or rats by injection of CII in incomplete Freund's adjuvant (IFA). Administration of this emulsion gives rise to polyarthritis, characterized by synovial hyperplasia, infiltration of mononuclear cells, pannus formation, and destruction of cartilage and bone. […] Syngeneic LOU rats were immunized on Day 0 with native chicken CII/IFA. Oral treatment began at the onset of arthritis symptoms (Day 10). […] Hind limbs were scored daily for clinical arthritis severity using a standardized method based on the degree of joint inflammation. High resolution digital radiographs of hind limbs were obtained at the conclusion of the study (Day 28). These limbs were also analyzed for histopathologic changes. IgG antibodies to native CII were measured in quadruplicate by ELISA. […] Brahn. 2004). Blinded composite histopathologic studies confirmed the regression of pannus and erosions: […] Antibodies to native CII were not decreased in Compound 1-treated rats.
# CHMCs = experiment: Ionomycin-induced degranulation of CHMCs; type: cell-based, Human
# [11] = Conversion of prodrug to drug in microsome preparations; type: in vitro ADME, rat
# Source text: (§2) Although phosphate-containing prodrugs suitable for oral administration are of interest, skilled artisans will appreciate that prodrugs including phosphate-containing progroups R^p can be administered via other routes of administration, as phosphatases are distributed throughout the body. […] Thus, the only requirement is that the particular phosphate-containing progroup R^P selected should be removable under the conditions of intended use.
# [12] = Stability / hydrolysis in rat plasma; type: in vitro ADME; conditions: FIG. 10
# Source text: as §2
# The presence of Phosphatase activity in rat plasma was confirmed using p-nitrophenyl phosphate—a known substrate for phosphatase.
# [13] = Stability under acidic and neutral conditions at 37° C.; type: physicochemical; conditions: FIG. 8
# [14] = Pharmacokinetics after IV and oral dosing in rats; type: in vivo, Sprague-Dawley rats
# Description: Prodrug Compound 4 was tested for oral bioavailability. For the study, the prodrug was dissolved in various vehicles (e.g. PEG 400 solution and CMC suspension) for intravenous and oral dosing in the rats. […] Following administration of the prodrug and/or drug, plasma samples were obtained and extracted. The plasma concentrations of the prodrug and/or drug were determined by high performance liquid chromatography/tandem mass spectrometry (LC/MS/MS) methods. Pharmacokinetic analyses were performed based on the plasma concentration data. The pharmacokinetic parameters of interest include Clearance (CL), Volume of distribution at steady-state (Vss), terminal half-life (t1/2), and oral bioavailability (% F).
# Referring to FIG. 4, PK profiles are shown for IV and PO administration in Spraque-Dawley rats. For IV administration, Compound 4 was dissolved in PEG-400 and administered at a dose of 1 mg/kg.
# FIG. 5 summarizes the PK parameters for the study described in FIG. 4.
# FIG. 11 illustrates the absorption of prodrug Compound 4 from different vehicles.
# [15] = water solubility, aqueous buffer under physiological conditions, read-out: Solubility
smiles,measurement,setting,value
"COc1cc(Nc2ncc(F)c(Nc3ccc4c(n3)NC(=O)C(C)(C)O4)n2)cc(OC)c1OC [Compound 1, N4-(2,2-dimethyl-3-oxo-4H-5-pyrido[1,4]oxazin-6-yl)-5-fluoro-N2-(3,4,5-trimethoxyphenyl)-2,4-pyrimidinediamine]",inhibition at 10 mg/kg,"[1]; Rattus norvegicus, 10 mg/kg oral, compared with vehicle control, read-out: inhibition of extravascular leakage of Evans blue dye (OD610) from tissue biopsies",80%
same,cutaneous RPA reaction and inflammatory edema,[1]; single oral treatment one hour prior to antigen/antibody administration,reduced the cutaneous RPA reaction and inflammatory edema in a dose-dependent manner
same,cardiovascular effect,[2],slight reduction in heart rate and increase in RR interval
same,"arthritis severity, disease incidence, time of onset","[3]; lower dose levels, differences not significant (p>0.05)","trend toward reduced arthritis severity, disease incidence, and time of onset"
same,clinical arthritis vs vehicle,"[3]; oral, b.i.d., p<0.05",significantly reduced clinical arthritis
same,solubility,"[4]; aqueous buffer, phosphate buffer at pH=7.5, data not shown, read-out: measured solubility",< 1 µg/mL
same,solubility,[4]; [15],1 to 2 µg/mL
same,EC50,LTC4,39 nM
same,CD45RA+ cells (immunophenotyping),[5],significant increase
same,Histopathology,[5],mild reductions in marrow cellularity
same,"effect on hematology, liver transaminase (mild), spleen and thymus size, bone marrow cellularity",[5],reversible effect
same,"humoral immunity, anti-KLH antibody assessment",[5],no evidence for untoward effects
same,percentage of CD3+ cells (immunophenotyping),[5],significant decrease
same,EC50,[6],~43 nM
same,EC50,cytokines,158 to 462 nM
same,mutagenicity and clastogenicity,[7],negative
same,effect on hematology and bone marrow cellularity,[8],reversible effect
same,behavioral effect,[9],slight effect on a few behavioral parameters
same,arthritis severity,"[10]; 30 mg/kg q.d. p.o., evident within 7 days after initiation of therapy, p<0.05",significant reduction
same,"Mean modified Mankin scores (histopathology, pannus and erosions)","[10]; 30 mg/kg, p<0.001 vs vehicle",3.7±0.9
same,clinical score,"[10]; Day 28, 30 mg/kg q.d. p.o., p<0.001 vs vehicle",2.54±0.98
same,"joint damage, blinded radiographs","[10]; Day 28, p<0.02 vs vehicle",1.63±0.67
same,inhibition of ionomycin-induced degranulation,CHMCs,does not inhibit
"COc1cc(Nc2ncc(F)c(Nc3ccc4c(n3)N(COP(=O)(O)O)C(=O)C(C)(C)O4)n2)cc(OC)c1OC [Compound 4, N4-(2,2-dimethyl-4-[(dihydrogenphosphonoxy)methyl]-3-oxo-5-pyrido[1,4]oxazin-6-yl)-5-fluoro-N2-(3,4,5-trimethoxyphenyl)-2,4-pyrimidinediamine]",Solubility of prodrug relative to active drug Compound 1,"[4]; same conditions, Compound 4 vs Compound 1",approximately 2000 times
same,solubility,[4]; [15],> 5000 µg/mL
same,conversion of prodrug Compound 4 to drug Compound 1,"[11]; microsomal preparations obtained from Xenotech, FIG. 9",failed to convert
same,conversion of prodrug Compound 4 to drug Compound 1,[11]; rat intestinal and hepatic microsomes from a different source (data not shown),metabolize to the active drug Compound 1; also recorded: conversion of Compound 4 to Compound 1 was observed
same,"stability in rat plasma, hydrolysis to drug Compound 1",[12],metabolize to the active drug Compound 1; also recorded: unstable
same,stability of prodrug,[13],stable
same,plasma levels of drug metabolite Compound 1 after dosing prodrug,[14]; Compound 4 given orally in PEG-400,high levels
same,disappearance / clearance of prodrug from plasma,"[14]; IV, 1 mg/kg in PEG-400, 1 mg/kg",Rapid disappearance; also recorded: rapidly cleared
same,systemic presence of prodrug after oral dosing,[14]; given orally in PEG-400,no prodrug Compound 4 was present systemically
same,"AUC/dose of drug Compound 1 exposure (absorption), prodrug vs drug","[14]; oral, Compound 1 2.5 mg/kg in PEG-400 vs Compound 4 4 mg/kg in PEG-400, FIG. 6",nearly identical
same,absorption from different vehicles,"[14]; oral, rats, PEG-400 and carboxymethylcellulose solutions, powder in hard gelatin capsules, FIG. 11",absorbed equally well; also recorded: not dependent on formulation
